Our source for the pest or weed control and plant injury values is patent US20120115724A1, “METHOD OF CONTROLLING UNDESIRED VEGETATION” (SYNGENTA CROP PROTECTION LLC, priority 2009, published 2012).

Common to all, as to assay type: in vivo
The subject of experiment [1] is Alopecurus myosuroides (ALOMY). Nature of the experiment: Pre-emergence biological efficacy (Example 13). The settings on record: Alopecurus myosuroides, 312 h; pre-emergence, 1,000 g/ha, after 13 days; read-out: Percentage damage ALOMY. As to the method: (§1) Seeds of Alopecurus myosuroides (ALOMY), Setaria faberi (SETFA), Echinochloa crus-galli (ECHCG), Solanum nigrum (SOLNI), Amaranthus retroflexus (AMARE) and Ipomea hederaceae (IPOHE) were sown in standard soil in pots. After cultivation for one day under controlled conditions in a glasshouse (at 24/16° C., day/night; 14 hours light; 65% humidity), the plants were sprayed with an aqueous spray solution derived from the formulation of the technical active ingredient in acetone/water (50:50) solution containing 0.5% Tween 20 (polyoxyethylene sorbitan monolaurate, CAS RN 9005-64-5) to give a final dose of 250 or 1000g/ha of test compound. The test plants were then grown under controlled conditions in the glasshouse (at 24/16° C., day/night; 14 hours light; 65% humidity) and watered twice daily. After 13 days the test was evaluated (100 =total damage to plant; 0 =no damage to plant).

Experiment [2] relates to Amaranthus retroflexus (AMARE). Description: Pre-emergence biological efficacy (Example 13). As to conditions: Amaranthus retroflexus, 312 h; pre-emergence, 1,000 g/ha, after 13 days; read-out: Percentage damage AMARE. On the procedure:
as §1

Experiment [3] relates to Echinochloa crus-galli (ECHCG). Description: Pre-emergence biological efficacy (Example 13). The settings on record: Echinochloa crus-galli, 312 h; pre-emergence, 1,000 g/ha, after 13 days; read-out: Percentage damage ECHCG. On the procedure:
as §1

Experiment [4] has as its system Ipomea hederaceae (IPOHE). Description: Pre-emergence biological efficacy (Example 13). As to conditions: Ipomoea hederacea, 312 h; pre-emergence, 1,000 g/ha, after 13 days; read-out: Percentage damage IPOHE. As to the method:
as §1

Experiment [5] concerns Setaria faberi (SETFA). Description: Pre-emergence biological efficacy (Example 13). As to conditions: Setaria faberi, 312 h; pre-emergence, 1,000 g/ha, after 13 days; read-out: Percentage damage SETFA. As to the method:
as §1

Experiment [6] deals with Solanum nigrum (SOLNI). Nature of the experiment: Pre-emergence biological efficacy (Example 13). As to conditions: Solanum nigrum, 312 h; pre-emergence, 1,000 g/ha, after 13 days; read-out: Percentage damage SOLNI. As to the method:
as §1

In experiment [7] the test system is Alopecurus myosuroides (ALOMY). Description: Post-emergence biological efficacy (Example 14). The settings on record: Alopecurus myosuroides, 312 h; post-emergence, 1,000 g/ha, after 13 days; read-out: Percentage damage ALOMY. On the procedure: as §1, with “for 8 days” for “for one day”, “or 1000 g/ha” for “or 1000g/ha”, “grown on” for “grown”, “in a” for “in the”, “evaluated (100=total” for “evaluated (100 =total”, “plant; 0=no” for “plant; 0 =no”

The subject of experiment [8] is Amaranthus retroflexus (AMARE). Nature of the experiment: Post-emergence biological efficacy (Example 14). As to conditions: Amaranthus retroflexus, 312 h; post-emergence, 1,000 g/ha, after 13 days; read-out: Percentage damage AMARE. On the procedure: as §1, with “for 8 days” for “for one day”, “or 1000 g/ha” for “or 1000g/ha”, “grown on” for “grown”, “in a” for “in the”, “evaluated (100=total” for “evaluated (100 =total”, “plant; 0=no” for “plant; 0 =no”

In experiment [9] the test system is Echinochloa crus-galli (ECHCG). Nature of the experiment: Post-emergence biological efficacy (Example 14). The settings on record: Echinochloa crus-galli, 312 h; post-emergence, 1,000 g/ha, after 13 days; read-out: Percentage damage ECHCG. On the procedure: as §1, with “for 8 days” for “for one day”, “or 1000 g/ha” for “or 1000g/ha”, “grown on” for “grown”, “in a” for “in the”, “evaluated (100=total” for “evaluated (100 =total”, “plant; 0=no” for “plant; 0 =no”

Experiment [10] concerns Ipomea hederaceae (IPOHE). Description: Post-emergence biological efficacy (Example 14). The settings on record: Ipomoea hederacea, 312 h; post-emergence, 1,000 g/ha, after 13 days; read-out: Percentage damage IPOHE. On the procedure:
as §1, with “for 8 days” for “for one day”, “or 1000 g/ha” for “or 1000g/ha”, “grown on” for “grown”, “in a” for “in the”, “evaluated (100=total” for “evaluated (100 =total”, “plant; 0=no” for “plant; 0 =no”

Experiment [11] has as its system Setaria faberi (SETFA). Description: Post-emergence biological efficacy (Example 14). The settings on record: Setaria faberi, 312 h; post-emergence, 1,000 g/ha, after 13 days; read-out: Percentage damage SETFA. As to the method: as §1, with “for 8 days” for “for one day”, “or 1000 g/ha” for “or 1000g/ha”, “grown on” for “grown”, “in a” for “in the”, “evaluated (100=total” for “evaluated (100 =total”, “plant; 0=no” for “plant; 0 =no”

Experiment [12] relates to Solanum nigrum (SOLNI). Nature of the experiment: Post-emergence biological efficacy (Example 14). The settings on record: Solanum nigrum, 312 h; post-emergence, 1,000 g/ha, after 13 days; read-out: Percentage damage SOLNI. On the procedure: as §1, with “for 8 days” for “for one day”, “or 1000 g/ha” for “or 1000g/ha”, “grown on” for “grown”, “in a” for “in the”, “evaluated (100=total” for “evaluated (100 =total”, “plant; 0=no” for “plant; 0 =no”

In experiment [13] the test system is ABUTH Abutilon theophrasti. Description: Post-emergence crop and weed test (Example 15). The settings on record: 360 h, after 15 days, read-out: Percentage damage ABUTH. On the procedure:
(§2) Seeds of crop and representative weed species were sown in standard soil in pots. After cultivation for 14 days under controlled conditions in a glasshouse (at 22/16° C., day/night; 16 hours light; 65% humidity), the plants were sprayed. The spray solution was prepared by dissolving the technical active ingredient in acetone containing 10.56 wt % Emulsogen EL, 42.22 wt % N-methylpyrrolidone and 2.22 wt % DPG-monoethyl ether to give a 5% stock solution. This was then diluted with water containing 0.2% (v/v) of the adjuvant X-77 to give the desired treatment concentration.
(§3) The test plants were then grown on under controlled conditions in a glasshouse (at 22/16° C., day/night; 16 hours light; 65% humidity) and watered twice daily. After 15 days the test was evaluated (100 =total damage to plant; 0 =no damage to plant).

Experiment [14] relates to AMARE Amaranthus retroflexus. Description: Post-emergence crop and weed test (Example 15). The settings on record: 360 h, after 15 days, read-out: Percentage damage AMARE. On the procedure: as §2, §3
For the next experiment, the system named is CHEAL Chenopodium album. Description: Post-emergence crop and weed test (Example 15). The settings on record: 360 h, after 15 days, read-out: Percentage damage CHEAL. On the procedure: as §2, §3
Experiment [15] has as its system EPHHL Euphorbia heterophylla. Description: Post-emergence crop and weed test (Example 15). The settings on record: 360 h, after 15 days, read-out: Percentage damage EPHHL. As to the method: as §2, §3
Another experiment concerns GLXMA Soybean. Nature of the experiment: Post-emergence crop and weed test (Example 15). The settings on record: Glycine max, 360 h, after 15 days, read-out: Percentage damage GLXMA. On the procedure: as §2, §3
The test system of the next experiment is IPOHE Ipomoea hederacea. Nature of the experiment: Post-emergence crop and weed test (Example 15). As to conditions: 360 h, after 15 days, read-out: Percentage damage IPOHE. As to the method:
as §2, §3

Another experiment has as its system KCHSC Kochia scoparia. Nature of the experiment: Post-emergence crop and weed test (Example 15). As to conditions: Bassia scoparia, 360 h, after 15 days, read-out: Percentage damage KCHSC. As to the method:
as §2, §3

Experiment [16] has as its system POLCO Polygonum convolvulus. Nature of the experiment: Post-emergence crop and weed test (Example 15). As to conditions: Fallopia convolvulus, 360 h, after 15 days, read-out: Percentage damage POLCO. On the procedure: as §2, §3
Another experiment concerns SIDSP Sida spinosa. Nature of the experiment: Post-emergence crop and weed test (Example 15). The settings on record: 360 h, after 15 days, read-out: Percentage damage SIDSP. On the procedure:
as §2, §3

The subject of a further experiment is SINAR Sinapis arvensis. Nature of the experiment: Post-emergence crop and weed test (Example 15). As to conditions: Mutarda arvensis, 360 h, after 15 days, read-out: Percentage damage SINAR. As to the method:
as §2, §3

The next experiment relates to VERPE Veronica persica. Description: Post-emergence crop and weed test (Example 15). The settings on record: 360 h, after 15 days, read-out: Percentage damage VERPE. On the procedure: as §2, §3
In experiment [17] the test system is XANST Xanthium strumarium. Nature of the experiment: Post-emergence crop and weed test (Example 15). As to conditions: 360 h, after 15 days, read-out: Percentage damage XANST. On the procedure:
as §2, §3

In the next experiment the test system is GALAP Galium aparine. Nature of the experiment: Post-emergence crop and weed test (Example 15). The settings on record: 360 h, 30 g/ha, after 15 days, read-out: Percentage damage GALAP. On the procedure: as §2, §3

Regarding `C=Cc1c(N)nc(-c2ccc(Cl)nc2)nc1C(=O)OC` [Compound 8, 4-amino-2-(6-chloropyridin-3-yl)-5-ethenyl-6-methoxycarbonyl-pyrimidine], the pest or weed control at 1000 g/ha in experiment [1] was determined as 10%; in experiment [2] it was 100%; in experiment [3] it was 0%; in experiment [4], 40%; with Setaria faberi (SETFA) [5], 10%; in the experiment on Solanum nigrum (SOLNI) [6], 40%. For the same molecule, the pest or weed control at 1000 g/ha in experiment [7] worked out at 0%; in experiment [8], 100%; in experiment [9], 0%; in experiment [10] it was 50%; in the experiment on Setaria faberi (SETFA) [11] it was 0%; in the experiment with Solanum nigrum (SOLNI) [12], 90%. The pest or weed control at 250 g/ha came to 60% in [13] (250 g/ha); 100% in experiment [14] (250 g/ha); 100% with CHEAL Chenopodium album (250 g/ha); 40% in experiment [15] (250 g/ha); 50% in the experiment with IPOHE Ipomoea hederacea (250 g/ha); 60% with KCHSC Kochia scoparia (250 g/ha). Also, the pest or weed control at 250 g/ha in [16] (250 g/ha) turned out to be 60%; in the experiment on SIDSP Sida spinosa (250 g/ha), 20%; in the experiment on SINAR Sinapis arvensis (250 g/ha), 70%; with VERPE Veronica persica (250 g/ha), 80%; in experiment [17] (250 g/ha), 80%. Besides, the plant injury at 250 g/ha in the experiment on GLXMA Soybean (250 g/ha) was 10%.
Turning to `COC(=O)c1nc(-c2ccc(Cl)c(N(C)C)c2F)nc(N)c1Cl` [Ref. Ex. A, 4-Amino-5-chloro-2-(4-chloro-3-dimethylamino-2-fluorophenyl)-6-methoxycarbonyl-pyrimidine, reference compound], the pest or weed control at 30 g/ha turned out to be 90% in [13] (30 g/ha); 100% in [14] (30 g/ha); 80% in the experiment on CHEAL Chenopodium album (30 g/ha); 80% in experiment [15] (30 g/ha); 30% in the experiment with GALAP Galium aparine; 70% in the experiment on IPOHE Ipomoea hederacea (30 g/ha). Moreover, the pest or weed control at 30 g/ha in the experiment with KCHSC Kochia scoparia (30 g/ha) was 80%; in experiment [16] (30 g/ha), 90%; in the experiment on SIDSP Sida spinosa (30 g/ha), 80%; with SINAR Sinapis arvensis (30 g/ha), 70%; with VERPE Veronica persica (30 g/ha) it was 70%; in experiment [17] (30 g/ha), 90%. Further, in the experiment on GLXMA Soybean (30 g/ha), the plant injury at 30 g/ha turned out to be 50%.
As to `C=Cc1c(N)nc(C2CC2)nc1C(=O)OC` [Ref. Ex. C, 4-Amino-2-cyclopropyl-5-ethenyl-6-methoxycarbonyl-pyrimidine, reference compound], the pest or weed control at 8 g/ha is 30% in experiment [13] (8 g/ha); 10% in experiment [14] (8 g/ha); 60% in the experiment on CHEAL Chenopodium album (8 g/ha); 30% in experiment [15] (8 g/ha); 70% with IPOHE Ipomoea hederacea (8 g/ha); 0% with KCHSC Kochia scoparia (8 g/ha). Also, the pest or weed control at 8 g/ha in experiment [16] (8 g/ha) is 0%; in the experiment on SIDSP Sida spinosa (8 g/ha), 40%; in the experiment with SINAR Sinapis arvensis (8 g/ha) it was 0%; in the experiment with VERPE Veronica persica (8 g/ha), 50%; in experiment [17] (8 g/ha), 0%. In addition, the plant injury at 8 g/ha in the experiment with GLXMA Soybean (8 g/ha) was determined as 70%.
